# Test results reported in PMC10648852, “Molecular drivers of resistance to sulbactam-durlobactam in contemporary clinical isolates of Acinetobacter baumannii” (Antimicrobial Agents and Chemotherapy, 2023).
# Tests used:
# Experiment in all cases: microbe, parasite or virus in culture
# [1] = test system: ABC clinical isolates with SUL-DUR MIC > 4 µg/mL; assay type: cell-based, Acinetobacter baumannii-calcoaceticus complex
# Method: (§1) The following report describes the genomic analysis of these isolates for likely resistance mechanisms. Biochemical analysis of purified PBP3 and phenotypic analyses of both clinical and isogenic strains were also conducted to determine the relative impact of key resistance determinants to SUL-DUR antibacterial activity.
# (§2) Antimicrobial susceptibility testing was performed using broth microdilution following standardized methods established by the Clinical Laboratory Standards Institute (CLSI) ([35], [36]). […] MIC values were interpreted using CLSI breakpoints for all antimicrobial agents except those for which CLSI breakpoints are not available ([35]). SUL-DUR was tested as twofold dilutions of sulbactam in combination with a fixed concentration of 4 µg/mL durlobactam ([35]).
# [2] = test system: A. baumannii clinical isolates; assay type: cell-based
# Method: as §1, §2
# [3] = test system: A. nosocomialis clinical isolate; assay type: cell-based; conditions: isolate ARC7023 (IHMA 2118812), France, BSI, 2019
# Method: as §1, §2
# [4] = test system: A. pittii clinical isolates; assay type: cell-based
# Method: as §1, §2
compound,measurement,setting,value
CN(C)c1ccc(O)c2c1C[C@H]1C[C@H]3[C@H](N(C)C)C(O)=C(C(N)=O)C(=O)[C@@]3(O)C(O)=C1C2=O [MIN],MIC50,[1],2 µg/mL
same,MIC90,[1],16 µg/mL
same,MIC Max,[1],>16 µg/mL
same,MIC Min,[1],≤0.12 µg/mL
same,%NS (% non-susceptibility),"[1]; 64 non-clonal ABC isolates, 2023 CLSI breakpoints plus FDA breakpoint of 4 µg/mL for SUL-DUR",27%
same,MIC,"[2]; isolate ARC6644 (IHMA 1420327), Mexico, UTI, 2016",8 µg/mL
same,MIC,"[2]; isolate ARC6645 (IHMA 1435703), France, UTI, 2016",0.5 µg/mL
same,MIC,"[2]; isolate ARC6646 (IHMA 1484127), United States, RTI, 2016",8 µg/mL
same,MIC,"[2]; isolate ARC6647 (IHMA 1386786), Argentina, RTI, 2016",1 µg/mL
same,MIC,"[2]; isolate ARC6648 (IHMA 1407634), Spain, RTI, 2016",1 µg/mL
same,MIC,"[2]; isolate ARC6650 (IHMA 1457337), Argentina, RTI, 2016",4 µg/mL
same,MIC,"[2]; isolate ARC6652 (IHMA 1465642), Belgium, RTI, 2016",≤0.12 µg/mL
same,MIC,"[2]; isolate ARC6653 (IHMA 1308777), Vietnam, RTI, 2016",16 µg/mL
same,MIC,"[2]; isolate ARC6799 (IHMA 1562935), Spain, UTI, 2017",>16 µg/mL
same,MIC,"[2]; isolate ARC6800 (IHMA 1557526), Turkey, RTI, 2017",2 µg/mL
same,MIC,"[2]; isolate ARC6801 (IHMA 1662094), Thailand, RTI, 2017",0.5 µg/mL
same,MIC,"[2]; isolate ARC6802 (IHMA 1557073), Spain, UTI, 2017",>16 µg/mL
same,MIC,"[2]; isolate ARC6803 (IHMA 1589408), Belgium, UTI, 2017",≤0.12 µg/mL
same,MIC,"[2]; isolate ARC6805 (IHMA 1558650), United States, RTI, 2017",8 µg/mL
same,MIC,"[2]; isolate ARC6808 (IHMA 1557168), Spain, RTI, 2017",16 µg/mL
same,MIC,"[2]; isolate ARC6809 (IHMA 1699528), Guatemala, RTI, 2017",≤0.12 µg/mL
same,MIC,"[2]; isolate ARC6810 (IHMA 1699548), Guatemala, RTI, 2017",1 µg/mL
same,MIC,"[2]; isolate ARC6812 (IHMA 1699530), Guatemala, RTI, 2017",0.25 µg/mL
same,MIC,"[2]; isolate ARC6813 (IHMA 1699543), Guatemala, UTI, 2017",0.25 µg/mL
same,MIC,"[2]; isolate ARC6814 (IHMA 1699512), Guatemala, RTI, 2017",4 µg/mL
same,MIC,"[2]; isolate ARC6815 (IHMA 1699513), Guatemala, RTI, 2017",0.25 µg/mL
same,MIC,"[2]; isolate ARC6816 (IHMA 1699521), Guatemala, RTI, 2017",8 µg/mL
same,MIC,"[2]; isolate ARC6817 (IHMA 1699523), Guatemala, RTI, 2017",≤0.12 µg/mL
same,MIC,"[2]; isolate ARC6818 (IHMA 1683261), Thailand, RTI, 2017",≤0.12 µg/mL
same,MIC,"[2]; isolate ARC6819 (IHMA 1683267), Thailand, RTI, 2017",8 µg/mL
same,MIC,"[2]; isolate ARC6820 (IHMA 1647876), Argentina, RTI, 2017",4 µg/mL
same,MIC,"[2]; isolate ARC6821 (IHMA 1699517), Guatemala, RTI, 2017",≤0.12 µg/mL
same,MIC,"[2]; isolate ARC6822 (IHMA 1637626), Guatemala, RTI, 2017",0.25 µg/mL
same,MIC,"[2]; isolate ARC6823 (IHMA 1620872), Greece, SSSI, 2017",8 µg/mL
same,MIC,"[2]; isolate ARC6824 (IHMA 1625487), Argentina, BSI, 2017",2 µg/mL
same,MIC,"[2]; isolate ARC6937 (IHMA 1562926), Spain, UTI, 2017",>16 µg/mL
same,MIC,"[2]; isolate ARC6950 (IHMA 1820064), Israel, RTI, 2018",2 µg/mL
same,MIC,"[2]; isolate ARC6953 (IHMA 1909827), Turkey, IAI, 2018",0.5 µg/mL
same,MIC,"[2]; isolate ARC6954 (IHMA 1838192), Guatemala, SSSI, 2018",0.5 µg/mL
same,MIC,"[2]; isolate ARC6955 (IHMA 1825425), United States, RTI, 2018",2 µg/mL
same,MIC,"[2]; isolate ARC7008 (IHMA 2009813), Thailand, BSI, 2019",4 µg/mL
same,MIC,"[2]; isolate ARC7009 (IHMA 2043611), United States, UTI, 2019",2 µg/mL
same,MIC,"[2]; isolate ARC7010 (IHMA 2043398), United States, RTI, 2019",1 µg/mL
same,MIC,"[2]; isolate ARC7011 (IHMA 2104553), Germany, RTI, 2019",2 µg/mL
same,MIC,"[2]; isolate ARC7012 (IHMA 2010001), Thailand, RTI, 2019",2 µg/mL
same,MIC,"[2]; isolate ARC7013 (IHMA 1962831), Argentina, RTI, 2019",1 µg/mL
same,MIC,"[2]; isolate ARC7014 (IHMA 2045328), Guatemala, IAI, 2019",16 µg/mL
same,MIC,"[2]; isolate ARC7015 (IHMA 2045327), Guatemala, UTI, 2019",0.25 µg/mL
same,MIC,"[2]; isolate ARC7016 (IHMA 2148441), Brazil, BSI, 2019",0.5 µg/mL
same,MIC,"[2]; isolate ARC7017 (IHMA 2148446), Brazil, BSI, 2019",0.25 µg/mL
same,MIC,"[2]; isolate ARC7018 (IHMA 2045454), Guatemala, IAI, 2019",0.25 µg/mL
same,MIC,"[2]; isolate ARC7019 (IHMA 2114463), Thailand, RTI, 2019",1 µg/mL
same,MIC,"[2]; isolate ARC7020 (IHMA 2045326), Guatemala, RTI, 2019",0.5 µg/mL
same,MIC,"[2]; isolate ARC7021 (IHMA 1966347), Guatemala, RTI, 2019",0.25 µg/mL
same,MIC,"[2]; isolate ARC7022 (IHMA 2045319), Guatemala, IAI, 2019",1 µg/mL
same,MIC,"[2]; isolate ARC7024 (IHMA 2059448), Turkey, RTI, 2019",2 µg/mL
same,MIC,"[2]; isolate ARC7025 (IHMA 2002121), Spain, RTI, 2019",8 µg/mL
same,MIC,"[2]; isolate ARC7026 (IHMA 2104494), Guatemala, BSI, 2019",2 µg/mL
same,MIC,"[2]; isolate ARC7082 (IHMA 2160640), Belgium, BSI, 2020",16 µg/mL
same,MIC,"[2]; isolate ARC7083 (IHMA 2163687), United States, RTI, 2020",16 µg/mL
same,MIC,"[2]; isolate ARC7084 (IHMA 2189596), Germany, RTI, 2020",1 µg/mL
same,MIC,"[2]; isolate ARC7085 (IHMA 2205747), Guatemala, IAI, 2020",1 µg/mL
same,MIC,"[2]; isolate ARC7086 (IHMA 2207563), Israel, RTI, 2020",2 µg/mL
same,MIC,"[2]; isolate ARC7088 (IHMA 2215554), Turkey, BSI, 2020",16 µg/mL
same,MIC,"[2]; isolate ARC7089 (IHMA 2240345), Argentina, BSI, 2020",2 µg/mL
same,MIC,"[2]; isolate ARC7090 (IHMA 2244410), Poland, RTI, 2020",4 µg/mL
same,MIC,"[2]; isolate ARC7091 (IHMA 2244564), Australia, RTI, 2020",≤0.12 µg/mL
same,MIC,"[2]; isolate ARC7092 (IHMA 2258772), United States, BSI, 2020",4 µg/mL
same,MIC,"[2]; isolate ARC7093 (IHMA 2258783), United States, RTI, 2020",8 µg/mL
same,MIC,"[2]; isolate ARC7094 (IHMA 2296423), Turkey, RTI, 2020",2 µg/mL
same,MIC,"[2]; isolate ARC7095 (IHMA 2320843), Turkey, BSI, 2020",8 µg/mL
same,MIC,"[2]; isolate ARC7156 (IHMA 2455450), Greece, RTI, 2021",>16 µg/mL
same,MIC,"[2]; isolate ARC7158 (IHMA 2523738), Italy, BSI, 2021",2 µg/mL
same,MIC,"[2]; isolate ARC7159 (IHMA 2456229), Malaysia, RTI, 2021",4 µg/mL
same,MIC,"[2]; isolate ARC7160 (IHMA 2458626), Thailand, RTI, 2021",1 µg/mL
same,MIC,"[2]; isolate ARC7161 (IHMA 2429252), Ukraine, RTI, 2021",16 µg/mL
same,MIC,"[2]; isolate ARC7162 (IHMA 2411847), United States, BSI, 2021",2 µg/mL
same,MIC,"[2]; isolate ARC7163 (IHMA 2477704), United States, BSI, 2021",2 µg/mL
same,MIC,[3],0.5 µg/mL
same,MIC,"[4]; isolate ARC6949 (IHMA 1898982), Romania, RTI, 2018",0.5 µg/mL
same,MIC,"[4]; isolate ARC6951 (IHMA 1776233), Philippines, RTI, 2018",0.25 µg/mL
same,MIC,"[4]; isolate ARC6952 (IHMA 1899008), Romania, RTI, 2018",1 µg/mL
same,MIC,"[4]; isolate ARC7087 (IHMA 2212062), Colombia, BSI, 2020",≤0.12 µg/mL
